# Reference: article PMC6263544, “Second-generation pterocarpanquinones: synthesis and antileishmanial activity” (The Journal of Venomous Animals and Toxins Including …, 2018)
# “Also recorded” adds a separate entry of the source.
# How the values were obtained:
# [1] = test system: promastigotes of L. infantum; assay: Mitochondrial membrane potential (ΔΨm) test (rhodamine 123, flow cytometry); assay type: cell-based, Leishmania infantum; settings: for Δѱm index of variation (IV): Rh123, IV = (MT − MC)/MC, mean ± SD; for effect on ΔΨm (in words): rhodamine 123, flow cytometry
# Procedure: To determine the effect of pterocarpanquinones 2a-f on the ΔΨm, promastigotes of L. infantum (5 × 10^6 cells/mL) were incubated in the presence of 0–5 μM of derivatives at 26 °C. After 4 h, the parasites were incubated for 15 min with 10 μg/mL rhodamine 123 (Rh123) (Sigma-Aldrich). Data acquisition of 10,000 events and analysis were performed using the flow cytometer FACSCalibur (Becton-Dickinson, Rutherford, NJ, USA). Alteration in ΔΨm was quantified using an index of variation (IV) obtained by the eq. IV = (MT − MC)/MC [24], where MT is the median of the fluorescence of Rh123 for treated parasites and MC is the median of the fluorescence of the control parasites. Negative IV values correspond to depolarization of the mitochondrial membrane. The FCCP (Carbonyl cyanide-p-Trifluoromethoxyphenylhydrazone) 20 μM was used as positive control.
# [2] = test system: intracellular amastigotes of L. amazonensis; assay: Antiamastigote test, L. amazonensis in mouse peritoneal macrophages; assay type: cell-based, Leishmania amazonensis; settings: for L. amazonensis SI (Selective Index): CC50 in Macrophages/IC50 in intracellular amastigotes; for IC50: Leishmania amazonensis, Peritoneal macrophage, intracellular amastigotes in mouse peritoneal macrophages, 72 h, infection index, Mean ± SEM, read-out: L. amazonensis Amastigote IC50
# Procedure: (§1) For the test against intracellular amastigotes of L. amazonensis and L. infantum, resident peritoneal macrophages (swiss mouse) were plated in RPMI (Sigma-Aldrich) at 2 × 10^6/mL (0.4 mL/well) in Lab-Tek eight-chamber slides (Nunc, Roskilde, Denmark) and incubated at 37 °C in 5% CO2 for 1 h. Stationary-phase L. amazonensis and L. infantum promastigotes were added at respective parasite/macrophage ratios of 3:1 and 5:1 for 4 h. After washing three times, pterocarpanquinones 2a-f at various concentrations were added for 72 h. Next, the slides were stained using an Instant Prov hematological dye system (Newprov, Curitiba, Brazil). The number of amastigotes was determined by counting at least 100 macrophages per sample.
# (§2) The results were expressed as an infection index (% infected cells×number of amastigotes/total number of macrophages). The 50% inhibitory concentration (IC50) was determined by nonlinear regression analysis in the software GraphPad Prism 5.
# [3] = test system: intracellular amastigotes of L. infantum; assay: Antiamastigote test, L. infantum in mouse peritoneal macrophages; assay type: cell-based, Leishmania infantum; settings: for L. infantum SI (Selective Index): CC50 in Macrophages/IC50 in intracellular amastigotes; for IC50: Leishmania infantum, Peritoneal macrophage, intracellular amastigotes in mouse peritoneal macrophages, infection index, Mean ± SEM, read-out: L. infantum Amastigote IC50
# Procedure: as §1, §2
# [4] = Macrophage toxicity test (resazurin); assay type: cell-based, Swiss mice; settings: mouse; peritoneal macrophages of Swiss mice, 72 h, resazurin, Mean ± SEM; read-out: Murine Macrophage CC50
# Procedure: To evaluate the toxicity of pterocarpanquinones 2a-f, peritoneal macrophages of Swiss mice (2 × 10^6/mL) were incubated with pterocarpanquinones (1.25–100 μM) for 72 h at 37 °C/5% CO2. Viability was evaluated with resazurin assay as described for the antipromastigote test. The 50% cytotoxicity concentration (CC50) was determined by nonlinear regression analysis in the software GraphPad Prism 5.
# [5] = test system: L. braziliensis promastigotes; assay: Antipromastigote test, L. braziliensis; assay type: cell-based; settings: for IC50: Leishmania braziliensis, 72 h, parasites counted in Neubauer chamber, Mean ± SEM, read-out: L. braziliensis Promastigote IC50
# Procedure: L. braziliensis (MCAN/BR/98/R619) was routinely isolated from hamster lesions and maintained as promastigotes in Schneider’s insect medium containing 20% HIFCS and 100 μg/ml gentamicin (Schering-Plough). New cultures of promastigotes were obtained from an infected hamster.
# (§3) Leishmania promastigotes of three species were incubated in 96-well plates (Nunc, Roskilde, Denmark) under the conditions described above in either the absence or presence of different concentrations of pterocarpanquinones 2a-f (0-100 μM). A stock solution of the compounds was prepared at 50 mM in dimethylsulfoxide (Sigma Aldrich). The maximum solvent concentration used in the assays was 0.4% in a final volume per well of 200 μL. The cultures were initiated with 1.0 × 10^6 cells/ml and maintained at 26 °C for 72 h. Inhibition of parasitic growth was determined by cell viability indicator, resazurin [23], with excitation λ = 560 nm and emission λ = 590 nm or the number of parasites was then counted in a Neubauer chamber (experiments with L. braziliensis). The 50% inhibitory concentration (IC50) was determined by nonlinear regression analysis in the software GraphPad Prism 5.
# [6] = test system: promastigotes of L. infantum; assay: Measurement of reactive oxygen species (H2DCFDA); assay type: cell-based, Leishmania infantum; settings: 1.25–5.0 μM; for ROS production, dependence on concentration: 4 h
# Procedure: Intracellular ROS levels were measured in treated and untreated cells as described previously. Briefly, 1 × 10^7 promastigotes/mL of L. infantum were incubated in Schneider’s insect medium supplemented with 20% HIFCS at 26 °C with concentrations of pterocarpanquinones 2a-f ranging from 0 to 5 μM in the presence of 20 μM H2DCFDA (Molecular Probes, Eugene, OR, USA). The fluorescence was monitored at 1 h intervals for 4 h using 485 and 530 nm as excitation and emission wavelengths, respectively, using the spectrofluorometer Spectra Max Gemini XPS (Molecular Devices, Silicon Valley, CA, USA). Antimycin A 10 μM was used as positive control.
# [7] = test system: intracellular amastigotes of L. braziliensis; assay: Antiamastigote test, L. braziliensis in golden hamster macrophages; assay type: cell-based; settings: for L. braziliensis SI (Selective Index): CC50 in Macrophages/IC50 in intracellular amastigotes; for IC50: Leishmania braziliensis, Peritoneal macrophage, intracellular amastigotes in golden hamster peritoneal macrophages, 72 h, infection index, Mean ± SEM, read-out: L. braziliensis Amastigote IC50
# Procedure: Macrophages of golden hamsters were used in assays against intracellular amastigotes of L. braziliensis due to the natural resistance of mice. Resident macrophages were obtained from the peritoneal cells of golden hamsters after a peritoneal injection of 10 mL of Dulbecco’s Modified Eagle’s medium (DMEM) (Sigma-Aldrich). The peritoneal macrophages were plated onto glass coverslips placed within the wells of a 24-well culture plate and incubated at 37 °C in 5% CO2 for 1 h. After removing the nonadherent cells, the monolayers were infected with stationary-phase L. braziliensis promastigotes at a 5:1 parasite/macrophage ratio for 4 h. The infected macrophages were washed and incubated with several pterocarpanquinone concentrations (0-25 μM) for 72 h. The monolayers were then stained with Giemsa, and at least 100 infected macrophages per sample were counted under optical microscopy.
# as §2
# [8] = test system: L. infantum promastigotes; assay: Antipromastigote test, L. infantum; assay type: cell-based, Leishmania infantum; settings: for IC50: Leishmania infantum, 72 h, resazurin, Mean ± SEM, read-out: L. infantum Promastigote IC50
# Procedure: Leishmania infantum (MHOM/MA67ITMAP263) parasites were isolated from female BALB/c mice infected and cultured at 26 °C in Schneider’s insect medium supplemented with 20% HIFCS, streptomycin at 100 μg/ml and penicillin at 100 U/ml. New cultures of promastigotes were obtained from infected Balb/C mice.
# as §3
# [9] = test system: L. amazonensis promastigotes; assay: Antipromastigote test, L. amazonensis; assay type: cell-based, Leishmania amazonensis; settings: for IC50: Leishmania amazonensis, 72 h, resazurin, Mean ± SEM, read-out: L. amazonensis Promastigote IC50
# Procedure: New cultures of promastigotes were obtained from infected Balb/C mice. […] A stock solution of the compounds was prepared at 50 mM in dimethylsulfoxide (Sigma Aldrich). The maximum solvent concentration used in the assays was 0.4% in a final volume per well of 200 μL. The cultures were initiated with 1.0 × 10^6 cells/ml and maintained at 26 °C for 72 h. Inhibition of parasitic growth was determined by cell viability indicator, resazurin [23], with excitation λ = 560 nm and emission λ = 590 nm or the number of parasites was then counted in a Neubauer chamber (experiments with L. braziliensis).
# [10] = 1.25 μM, 4 h, negative = depolarization
# [11] = 2.5 μM, 4 h, negative = depolarization
SMILES,L. amazonensis SI (Selective Index) [2],IC50 [2] [µM],"Δѱm index of variation (IV) [1, 10]","Δѱm index of variation (IV) [1, 11]",L. infantum SI (Selective Index) [3],IC50 ([3]; 72 h) [µM],CC50 at 72 h [4] [µM],IC50 [5] [µM],"ROS production, dependence on concentration [6]",L. braziliensis SI (Selective Index) [7],IC50 [7] [µM],IC50 [8] [µM],IC50 [9] [µM],effect on ΔΨm (in words) ([1]; 4 h),also measured
"N#CC(C#N)=NNc1ccc(OC(F)(F)F)cc1 [FCCP, Carbonyl cyanide-p-Trifluoromethoxyphenylhydrazone, reference compound]",–,–,–,–,–,–,–,–,–,–,–,–,–,–,Δѱm index of variation (IV) ([1]; 20 μM (positive control)): −0.727 ± 0.01
O=C1C2=C(C(=O)c3ccccc31)[C@H]1COc3ccccc3[C@H]1O2 [LQB 182 (2b)],19.8,0.85 ± 0.02,−0.397 ± 0.07,−0.402 ± 0.04,4.69,3.6 ± 0.9,16.9 ± 1.2,11 ± 1.25,increased ROS generation dependent on compound concentration,2.15,7.84 ± 2.46,1 ± 0.3,1.08 ± 0.2,–,"improvement of activity, 2b in comparison to 1 ([2]; amastigotes of L. amazonensis): about 1.6 times; activity against L. infantum amastigotes (in words) ([3]; intracellular amastigotes, 72 h): the only one active; decrease in antileishmanial activity, 2b in comparison to 1 ([5]; promastigotes of L. braziliensis): 3.2 times; activity relative to deoxy derivative 2a ([5]; promastigotes of L. braziliensis, listed as 2b): approximately twice as active; also recorded: approximately two times more active; Early ROS production after 4 h of treatment ([6]; compared with control, listed as 2b): induction of increased ROS production; improvement of activity, 2b in comparison to 1 ([8]; promastigotes of L. infantum): ~4 times; improvement of activity, 2b in comparison to 1 ([9]; promastigotes of L. amazonensis): about 1.6 times"
COc1ccc2c(c1)[C@H]1OC3=C(C(=O)c4ccccc4C3=O)[C@H]1CC2 (relative stereo) [LQB 475 (2f)],23.76,2.1 ± 0.4,−0.668 ± 0.01,−0.707 ± 0.01,–,> 40,–,10.5 ± 1.01,–,5.53,9.02 ± 1.64,1.4 ± 0.7,0.4 ± 0.06,greater depolarization,–
COc1ccc2c(c1)CC[C@@H]1C3=C(O[C@H]21)C(=O)c1ccccc1C3=O (relative stereo) [LQB 474 (2e)],5.74,2.6 ± 0.8,−0.582 ± 0.1,−0.701 ± 0.01,–,> 10,14.9 ± 1.43,12.3 ± 0.45,only increased ROS production when the parasite was incubated with the highest concentration of 5 μM,1.74,8.53 ± 1.12,2.2 ± 0.3,0.5 ± 0.07,greater depolarization,–
"N=C(N)c1ccc(OCCCCCOc2ccc(C(=N)N)cc2)cc1 [Pentamidine, reference compound]",4.47,1.9 ± 0.1,–,–,21.25,0.4 ± 0.2,8.5 ± 1.25,13 ± 0.04,–,1.1,7.7 ± 2.4,5.7 ± 0.12,4.8 ± 0.09,–,–
O=C1C2=C(C(=O)c3ccccc31)[C@H]1CCc3ccccc3[C@H]1O2 (relative stereo) [LQB 187 (2a)],54.7,0.9 ± 0.1,−0.103 ± 0.16,−0.368 ± 0.03,–,> 25,49.3 ± 1.1,23.1 ± 1.63,–,5.0,9.85 ± 1.37,1.2 ± 0.2,1.05 ± 0.21,–,–
